Assays:
[1] = Stability of the crystalline forms (suspension balance), product form decided by XRPD; type: physicochemical; conditions: suspension time 2 days
Procedure: 20mg of crystalline form A and 20mg of crystalline form B were mixed, then placed into 1ml of methanol as a solvent, followed by mixing the resultant suspension with a magnetic stirrer at a rotational speed of 100 rpm for two days. And then, the suspension was filtered, and the product obtained was washed with a small amount of methanol, followed by drying at room temperature to give a solid, which was analyzed with XRPD to decide the crystalline form of the product. Other sample mixtures were also shown in Table 1 (see Table 1 for results). Table 1 Comparison of the stability of the crystalline forms (suspension balance)

[2] = Comparison of solubility of the crystalline forms in water (UV absorbance of saturated solution); type: physicochemical; conditions: for Absorbance (Abs): saturated water solution (10mg in 1ml of water, stirred 1 hour, filtered), diluted 10 times, ultraviolet spectrophotometer; for Solubility relationship with respect to Form A: water, concentration ratio from absorbance according to the Lambert-Beer law
Procedure: 10mg of 6-(4-chlorophenoxy)-tetrazolo[5,1-a]phthalazine in each of the four crystalline forms was dissolved into 1ml of water, respectively, and the mixture was stirred for 1 hour so as to reach a solubility equilibrium with a supersaturated state being kept, and then the resultant mixture was filtered to give a clear and saturated water solution for each of the crystalline forms, respectively. Then, each solution was diluted 10 times, and absorbance thereof was measured using a ultraviolet spectrophotometer, and then the concentration ratio of 6-(4-chlorophenoxy)-tetrazolo[5,1-a]phthalazine in each solution could be determined according to the Lambert-Beer law, so as to obtain the solubility relationship among the four crystalline forms (see Table 2 for results). Table 2 Comparison of solubility of the crystalline forms

[3] = test system: maximal electroshock seizure; assay: Maximal electroshock (MES) test; type: in vivo; conditions: mice; for ED50, MES / ED50: p.o (intragastrically, i.g.), effect against electroshock seizure; for ED50: Mus musculus, po
Procedure: Maximal electroshock (MES) test is an ideal animal model for evaluating a compound having a potential anti-epileptic effect, and if the compound can be applied against the maximal electroshock seizure, then it is likely to be further developed as a drug for treatment of grand mal clinically. Each of the four crystalline forms of this invention was intragastrically (i.g.) administered to mice respectively, each median effective dose (ED50) for the effect against electroshock seizure was measured, and each anti-convulsion effect was assessed. Table 3 Comparison of the pharmacological effect of the anti-convulsion of the crystalline forms (mg/kg, p.o)

Row | SMILES | Absorbance (Abs) [2] [Abs] | Solubility relationship with respect to Form A [2] [times] | ED50, MES [3] [mg/kg] | also measured
1 | Clc1ccc(Oc2nn3nnnc3c3ccccc23)cc1 [Form A + Form D, 6-(4-chlorophenoxy)-tetrazolo[5,1-a]phthalazine] |  |  |  | Crystalline form of the product ([1]; solvent for suspension Nitromethane + n-hexane): Form A
2 | NC(=O)N1c2ccccc2C=Cc2ccccc21 [Carbamazepine, reference compound] |  |  |  | ED50 [3]: 15.4 mg/kg
3 | Clc1ccc(Oc2nn3nnnc3c3ccccc23)cc1 [Form A + Form C, 6-(4-chlorophenoxy)-tetrazolo[5,1-a]phthalazine] |  |  |  | Crystalline form of the product ([1]; solvent for suspension Methyl ethyl ketone): Form A
4 | Clc1ccc(Oc2nn3nnnc3c3ccccc23)cc1 [Form A + Form B, 6-(4-chlorophenoxy)-tetrazolo[5,1-a]phthalazine] |  |  |  | Crystalline form of the product ([1]; solvent for suspension Methanol): Form A

The next lines start with results.

Row | Absorbance (Abs) [2] [Abs] | Solubility relationship with respect to Form A [2] [times] | SMILES | ED50, MES [3] [mg/kg] | also measured
5 | 0.326 | 8.0 | Clc1ccc(Oc2nn3nnnc3c3ccccc23)cc1 [Crystalline form C, 6-(4-chlorophenoxy)-tetrazolo[5,1-a]phthalazine] | 8.5 | water solubility (in words) ([2]; comparison among the crystalline forms): best water solubility; anti-convulsion effect (in words) ([3]; comparison among the crystalline forms, intragastrically administered): strongest anti-convulsion effect
6 | 0.279 | 6.8 | Clc1ccc(Oc2nn3nnnc3c3ccccc23)cc1 [Crystalline form B, 6-(4-chlorophenoxy)-tetrazolo[5,1-a]phthalazine] | 9.2 | 
7 | 0.134 | 3.3 | Clc1ccc(Oc2nn3nnnc3c3ccccc23)cc1 [Crystalline form D, 6-(4-chlorophenoxy)-tetrazolo[5,1-a]phthalazine] | 12.7 | 
8 | 0.0407 |  | Clc1ccc(Oc2nn3nnnc3c3ccccc23)cc1 [Crystalline form A, 6-(4-chlorophenoxy)-tetrazolo[5,1-a]phthalazine] |  | ED50 [3]: 15.6 mg/kg
